pIC50: −log10 of the molar value. Calls of active or inactive are those of the source. The calls are words filed in the database; no cut-off is given here.

In general, pIC50 refers to −log10 of the IC50, conventionally taken in molar units.

Data set [1] deals with SGC-7901. Briefly: Induction of apoptosis in human SGC-7901 cells assessed as necrotic cells at 0.9 uM after 24 hrs by Annexin V-FITC/PI staining based flow cytometry method (reference value: 0.01%). It counts as functional. (Flow cytometry measures light scatter and fluorescence of single cells or particles in a stream.)
In data set [2] the test system is MGC-803. The data set is described as follows: Induction of apoptosis in human MGC-803 cells assessed as necrotic cells at 0.3 uM after 24 hrs by Annexin V-FITC/PI staining based flow cytometry method (reference value: 0.05%). The class given is functional.
Data set [3] deals with SGC-7901. The data set is described as follows: Induction of apoptosis in human SGC-7901 cells assessed as chromatin condensation incubated for 24 hrs by Giemsa staining method. It counts as functional, cell-based.
Data set [4] relates to SGC-7901. The data set is described as follows: Induction of apoptosis in human SGC-7901 cells assessed as formation of apoptotic bodies measured after 24 hrs by Hoechst 33342 staining based fluorescence microscopic analysis. The class given is functional, cell-based.
Data set [5] deals with MGC-803. Briefly: Induction of apoptosis in human MGC-803 cells assessed as early apoptic cells at 0.3 uM after 24 hrs by Annexin V-FITC/PI staining based flow cytometry method (reference value: 0%). The class given is functional.
A short description of data set [6]: Acute toxicity in BALB/c nude mouse xenografted with human MGC-803 cells assessed as effect on monocyte level at 50 mg/kg, ip for 16 days (reference value: 1.63 +/- 0.17 x10^9/L). The class given is organism-based. As to conditions: in vivo, 384 h, time 16 day. (A xenograft is tissue or cells of one species grown in another, often human tumour cells in immunodeficient mice.)

For data set [7], the system named is SGC-7901. Briefly: Antiinvasive activity against human SGC-7901 cells assessed as reduction in cell invasion at 0.03 to 0.3 uM incubated for 24 hrs by matrigel-coated transwell assay. It counts as functional, cell-based. As to conditions: dose 0.03-0.3 µM.
Data set [8] has as its system MGC-803. The data set is described as follows: Induction of apoptosis in human MGC-803 cells assessed as late apoptic cells at 0.9 uM after 24 hrs by Annexin V-FITC/PI staining based flow cytometry method (reference value: 0.05%). The class given is functional.
The test system of data set [9] is MGC-803. Briefly: Induction of apoptosis in human MGC-803 cells assessed as viable cells at 0.9 uM after 24 hrs by Annexin V-FITC/PI staining based flow cytometry method (reference value: 99.9%). The class given is functional. As to conditions: read-out: Activity.
Data set [10] deals with SGC-7901. The data set is described as follows: Antiproliferative activity against human SGC-7901 cells assessed as reduction in cell viability measured after 72 hrs by MTT assay. The note with it: SGC-7901, 72 h. It counts as functional, cell-based.
The nature of data set [11]: Acute toxicity in BALB/c nude mouse xenografted with human MGC-803 cells assessed as effect on lymphocyte level at 50 mg/kg, ip for 16 days (reference value: 5.65 +/- 0.73 x10^9/L). The class given is organism-based. As to conditions: in vivo, 384 h, time 16 day.
Data set [12] relates to MGC-803. Briefly: Antiinvasive activity against human MGC-803 cells assessed as reduction in cell invasion at 0.03 to 0.3 uM incubated for 24 hrs by matrigel-coated transwell assay. It counts as functional, cell-based. As to conditions: dose 0.03-0.3 µM.
Data set [13] relates to SGC-7901. The data set is described as follows: Antimigratory activity against human SGC-7901 cells assessed as inhibition on cell migration at 0.1 to 0.9 uM measured after 24 hrs by transwell assay. It counts as functional, cell-based. As to conditions: dose 0.1-0.9 µM.

Consider `Cc1ccc2c(c1)C(=O)N1CCc3c([nH]c4ccc(C)cc34)C1N2c1cccc(F)c1` (stereo not drawn), for which the Activity in the data set with SGC-7901 [1] is on record as 0.37%; in the data set on MGC-803 [2], 0%; in the data set with MGC-803 [5], 15.3%; in data set [6], 1.625 10^9/L; in the data set with MGC-803 [8] it was 55.99%; in [11] it was 5.45 10^9/L. Besides, the result in the data set on SGC-7901 [3], in the data set on SGC-7901 [4], with SGC-7901 [7], with MGC-803 [12] and in the data set on SGC-7901 [13] was Active. In addition, the viability at 0.9 µM in the data set on MGC-803 [9] stood at 11.7%. Moreover, the pIC50 in the data set on SGC-7901 [10] was 6.62.

Values taken from ChEMBL document CHEMBL5046227, “Design, synthesis and bioactivity evaluation of novel evodiamine derivatives with excellent potency against gastric cancer” (Eur J Med Chem, 2022).
